Data as given in PubChem BioAssay (NCI).
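Abbreviation: GI50, concentration required for 50% inhibition of growth. Definition used: TGI = concentration required for complete inhibition of growth.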

What was measured:
Experiment in all cases: NCI anticancer screen, dose series, 384-well format
[1] = tested on: DU-145 prostate
[2] = tested on: MOLT-4 leukemia
[3] = tested on: HCT-15 colon
[4] = tested on: RPMI-8226 leukemia
[5] = tested on: IGROV1 ovarian
[6] = tested on: TK-10 renal
[7] = tested on: OVCAR-5 ovarian
[8] = tested on: SN12C renal
[9] = tested on: NCI-H522 lung
[10] = tested on: MDA-MB-435 melanoma
[11] = tested on: SF-268 CNS
[12] = tested on: CAKI-1 renal
[13] = tested on: RXF 393 renal
[14] = tested on: T-47D breast
[15] = tested on: MDA-MB-468 breast
[16] = tested on: SW-620 colon
[17] = tested on: LOX IMVI melanoma
[18] = tested on: SNB-75 CNS
[19] = tested on: HT29 colon
[20] = tested on: KM12 colon
[21] = tested on: U251 glioblastoma
[22] = tested on: MCF7 breast
[23] = tested on: OVCAR-3 ovarian
[24] = tested on: MDA-MB-231 breast
[25] = tested on: NCI-H322M lung
[26] = tested on: SK-MEL-28 melanoma
[27] = tested on: NCI-H23 lung
[28] = tested on: A549 NSCLC
[29] = tested on: ACHN renal
[30] = tested on: MALME-3M melanoma
[31] = tested on: HL-60(TB) leukemia
[32] = tested on: COLO 205 colon
[33] = tested on: SNB-19 CNS
[34] = tested on: UACC-62 melanoma
[35] = tested on: NCI-H460 NSCLC
[36] = tested on: PC-3 prostate
[37] = tested on: A498 renal
[38] = tested on: SF-295 CNS
[39] = tested on: HOP-92 NSCLC
[40] = tested on: BT-549 breast
[41] = tested on: HCC-2998 colon
[42] = tested on: HS 578T breast
[43] = tested on: OVCAR-4 ovarian
[44] = tested on: UACC-257 melanoma
[45] = tested on: HOP-62 NSCLC
[46] = tested on: CCRF-CEM leukemia
[47] = tested on: HCT-116 colon
[48] = tested on: SK-MEL-2 melanoma
[49] = tested on: SK-OV-3 ovarian
[50] = tested on: SF-539 CNS
[51] = tested on: UO-31 renal
[52] = tested on: M14 melanoma
[53] = tested on: EKVX NSCLC
[54] = tested on: NCI/ADR-RES ovarian
[55] = tested on: K-562 leukemia
[56] = tested on: SR leukemia
[57] = tested on: 786-0 renal
[58] = tested on: NCI-H226 lung
[59] = tested on: SK-MEL-5 melanoma

Compound: Cc1ccc(/C=N/NC(=O)c2ccccc2Oc2ccccc2)o1
- GI50 [1]: 6.77 µM
- TGI [1]: 19.9 µM
- GI50 [2]: 1.75 µM
- TGI [2]: 3.2 µM
- GI50 [3]: 17.3 µM
- TGI [3]: 31.6 µM
- GI50 [4]: 18.6 µM
- TGI [4]: 32.7 µM
- GI50 [5]: 2.49 µM
- TGI [5]: 10.7 µM
- GI50 [6]: 4.22 µM
- TGI [6]: 16.7 µM
- GI50 [7]: 6.64 µM
- TGI [7]: 20 µM
- GI50 [8]: 4.87 µM
- TGI [8]: 17 µM
- GI50 [9]: 16.2 µM
- TGI [9]: 29.7 µM
- GI50 [10]: 18.8 µM
- TGI [10]: 32.9 µM
- GI50 [11]: 18.9 µM
- TGI [11]: 33.3 µM
- GI50 [12]: 17.6 µM
- TGI [12]: 31.6 µM
- GI50 [13]: 16.9 µM
- TGI [13]: 30.6 µM
- GI50 [14]: 16.2 µM
- TGI [14]: 29.8 µM
- GI50 [15]: 1.88 µM
- TGI [15]: 3.84 µM
- GI50 [16]: 19.2 µM
- TGI [16]: 33.4 µM
- GI50 [17]: 19.5 µM
- TGI [17]: 33.7 µM
- GI50 [18]: 17.1 µM
- TGI [18]: 31.1 µM
- GI50 [19]: 17.9 µM
- TGI [19]: 32 µM
- GI50 [20]: 0.829 µM
- TGI [20]: 19.5 µM
- GI50 [21]: 18 µM
- TGI [21]: 32 µM
- GI50 [22]: 4.85 µM
- TGI [22]: 17.1 µM
- GI50 [23]: 16.3 µM
- TGI [23]: 30.4 µM
- GI50 [24]: 18.3 µM
- TGI [24]: 34 µM
- GI50 [25]: 19.1 µM
- TGI [25]: 34.5 µM
- GI50 [26]: 18.6 µM
- TGI [26]: 32.6 µM
- GI50 [27]: 4.32 µM
- TGI [27]: 16.1 µM
- GI50 [28]: 17.9 µM
- TGI [28]: 31.9 µM
- GI50 [29]: 3.35 µM
- TGI [29]: 12.2 µM
- GI50 [30]: 18.6 µM
- TGI [30]: 32.7 µM
- GI50 [31]: 19.4 µM
- TGI [31]: 33.6 µM
- GI50 [32]: 5.62 µM
- TGI [32]: 17.3 µM
- GI50 [33]: 12.1 µM
- TGI [33]: 25 µM
- GI50 [34]: 4.66 µM
- TGI [34]: 16.5 µM
- GI50 [35]: 16.6 µM
- TGI [35]: 30.5 µM
- GI50 [36]: 17.6 µM
- TGI [36]: 32 µM
- GI50 [37]: 17.3 µM
- TGI [37]: 31.2 µM
- GI50 [38]: 4.52 µM
- TGI [38]: 16.4 µM
- GI50 [39]: 4.72 µM
- TGI [39]: 16.4 µM
- GI50 [40]: 19.5 µM
- TGI [40]: 33.7 µM
- GI50 [41]: 17.8 µM
- TGI [41]: 31.7 µM
- GI50 [42]: 16.6 µM
- TGI [42]: 30.3 µM
- GI50 [43]: 10.7 µM
- TGI [43]: 24.4 µM
- GI50 [44]: 17.3 µM
- TGI [44]: 31.2 µM
- GI50 [45]: 6.21 µM
- TGI [45]: 19 µM
- GI50 [46]: 2 µM
- TGI [46]: 4.13 µM
- GI50 [47]: 17.7 µM
- TGI [47]: 31.6 µM
- GI50 [48]: 3.99 µM
- TGI [48]: 7.04 µM
- GI50 [49]: 16.8 µM
- TGI [49]: 31.2 µM
- GI50 [50]: 18.1 µM
- TGI [50]: 32 µM
- GI50 [51]: 3.78 µM
- TGI [51]: 13.1 µM
- GI50 [52]: 5.39 µM
- TGI [52]: 18 µM
- GI50 [53]: 18.1 µM
- TGI [53]: 32.5 µM
- GI50 [54]: 17.5 µM
- TGI [54]: 31.7 µM
- GI50 [55]: 3.71 µM
- TGI [55]: 13.5 µM
- GI50 [56]: 1.73 µM
- TGI [56]: 3.24 µM
- GI50 [57]: 8.44 µM
- TGI [57]: 20.8 µM
- GI50 [58]: 6.68 µM
- TGI [58]: 19.2 µM
- GI50 [59]: 17.1 µM
- TGI [59]: 30.9 µM
